# According to patent US7217722B2 (Kirin Beer Kabushiki Kaisha, priority 2000, dated 2007):
# Target: Rho kinase (fused protein of bovine Rho kinase catalyst region and glutathione S-transferase) (Bos taurus, UniProt Q28021)
# Test: Rho kinase inhibitory activity (phosphorylation of S6 231–239 substrate, γ32P-ATP)
# Assay type: biochemical
# Conditions: concentration inhibiting substrate phosphorylation by 50%
# Method: This permits the substrate to be labeled with the radioisotope.
# Thereafter, the substrate was adsorbed to a filter paper. ATP was washed away with a phosphoric acid solution, and the amount of the phosphorylated substrate was then measured with a liquid scintillation counter.
# Rho kinase (fused protein of bovine Rho kinase catalyst region and glutathione S-transferase), sequence (Q28021 92-354 limits assumed): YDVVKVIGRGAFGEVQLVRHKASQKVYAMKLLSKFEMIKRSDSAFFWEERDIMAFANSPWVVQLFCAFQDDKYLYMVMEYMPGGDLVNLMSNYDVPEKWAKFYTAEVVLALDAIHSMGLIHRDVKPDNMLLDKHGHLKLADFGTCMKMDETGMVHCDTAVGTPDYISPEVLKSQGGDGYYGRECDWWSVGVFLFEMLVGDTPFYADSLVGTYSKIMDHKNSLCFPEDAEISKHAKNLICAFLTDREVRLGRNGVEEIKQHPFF
row,IC50,Compound
1,6.03 µM,"O=C(NCC1CCCCC1)Nc1ccncc1 [Example 75, N-Cyclohexylmethyl-N′-(4-pyridyl)urea]"
2,1.69 µM,"O=C(NCC1CCCCC1)Nc1ccc2c(c1)C(=O)NC2=O [Example 76, N-Cyclohexylmethyl-N′-(1,3-dioxo-2,3-dihydro-1H-5-isoindolyl)urea]"
3,4.07 µM,"O=C(NCc1c(F)cc(F)cc1F)Nc1ccncc1 [Example 77, N-(4-Pyridyl)-N′-(2,4,6-trifluorobenzyl)urea]"
4,10.4 µM,"O=C(Nc1cccc([N+](=O)[O-])c1)Nc1ccc2c(c1)C(=O)NC2=O [Example 78, N-(1,3-Dioxo-2,3-dihydro-1H-5-isoindolyl)-N′-(3-nitrophenyl)urea]"
5,8.57 µM,Nc1cccc(NC(=O)Nc2ccc3c(c2)C(=O)NC3=O)c1 [Example 79]
6,0.054 µM,"O=C(NCc1c(Cl)cccc1Cl)Nc1cc2c(cc1Cl)C(=O)NC2=O [Example 81, N-(6-Chloro-1,3-dioxo-2,3-dihydro-1H-5-isoindolyl)-N′-(2,6-dichlorobenzyl)urea]"
7,0.29 µM,"O=C(NCc1ccccc1Cl)Nc1ccc2c(c1)C(=O)NC2=O [Example 82, N-(2-Chlorobenzyl)-N′-(1,3-dioxo-2,3-dihydro-1H-5-isoindolyl)urea]"
8,0.26 µM,"O=C(NCc1ccccc1)Nc1ccc2[nH]ncc2c1 [Example 84, N-Benzyl-N′-(1H-5-indazolyl)urea]"
9,0.18 µM,"O=C(NCc1cccc2ccccc12)Nc1ccc2c(c1)C(=O)NC2=O [Example 85, N-(1,3-Dioxo-2,3-dihydro-1H-5-isoindolyl)-N′-(1-naphthylmethyl)urea]"
10,0.9 µM,"O=C(NCc1ccccc1[N+](=O)[O-])Nc1ccc2c(c1)C(=O)NC2=O [Example 86, N-(1,3-Dioxo-2,3-dihydro-1H-5-isoindolyl)-N′-(2-nitrobenzyl)urea]"
11,0.18 µM,Nc1ccccc1CNC(=O)Nc1ccc2c(c1)C(=O)NC2=O [Example 87]
12,0.44 µM,"O=C(NCc1ccc(Cl)cc1Cl)Nc1ccc2c(c1)C(=O)NC2=O [Example 88, N-(2,4-Dichlorobenzyl)-N′-(1,3-dioxo-2,3-dihydro-1H-5-isoindolyl)urea]"
13,0.3 µM,"O=C(NCc1c(Cl)ccc(Cl)c1Cl)Nc1ccc2c(c1)C(=O)NC2=O [Example 89, N-(1,3-Dioxo-2,3-dihydro-1H-5-isoindolyl)-N′-(2,3,6-trichlorobenzyl)urea]"
14,0.099 µM,"O=C(NCc1c(F)cccc1C(F)(F)F)Nc1ccc2c(c1)C(=O)NC2=O [Example 91, N-(1,3-Dioxo-2,3-dihydro-1H-5-isoindolyl)-N′-[2-fluoro-6-(trifluoromethyl)benzyl]urea]"
15,10.2 µM,"O=C(NCc1ccccc1)Nc1ccncc1 [Example 92, N-Benzyl-N′-(4-pyridyl)urea]"
16,12.5 µM,"O=C(NCc1ccccc1[N+](=O)[O-])Nc1ccncc1 [Example 93, N-(2-Nitrobenzyl)-N′-(4-pyridyl)urea]"
17,7.2 µM,"O=C(NCc1ccccc1Cl)Nc1ccncc1 [Example 94, N-(2-Chlorobenzyl)-N′-(4-pyridyl)urea]"
18,0.23 µM,"O=C(NCc1c(F)cccc1C(F)(F)F)Nc1ccc2[nH]ncc2c1 [Example 96, N-[2-fluoro-6-(trifluoromethyl)benzyl]-N′-(1H-5-indazolyl)urea]"
19,2.1 µM,"O=C(NCc1c(F)c(F)c(F)c(F)c1F)Nc1ccncc1 [Example 97, N-(2,3,4,5,6-Pentafluorobenzyl)-N′-(4-pyridyl)urea]"
20,0.41 µM,"O=C(NCc1c(F)c(F)c(F)c(F)c1F)Nc1ccc2c(c1)C(=O)NC2=O [Example 98, N-(1,3-Dioxo-2,3-dihydro-1H-5-isoindolyl)-N′-(2,3,4,5,6-pentafluorobenzyl)urea]"
21,0.24 µM,"O=C(NCc1c(F)cc(F)cc1F)Nc1ccc2c(c1)C(=O)NC2=O [Example 99, N-(1,3-Dioxo-2,3-dihydro-1H-5-isoindolyl)-N′-(2,4,6-trifluorobenzyl)urea]"
22,0.22 µM,"O=C(NCc1ccc(Cl)cc1Cl)Nc1ccc2[nH]ncc2c1 [Example 100, N-(2,4-Dichlorobenzyl)-N′-(1H-5-indazolyl)urea]"
